{"source": "ChEMBL document CHEMBL5500406", "about": "“Discovery of Novel Proteolysis-Targeting Chimera Molecules as Degraders of Programmed Cell Death-Ligand 1 for Breast Cancer Therapy” (J Med Chem, 2024)", "key": {"4T1 [1]": {"test_system": "4T1", "assay": "Antitumor activity against mouse 4T1 cells allografted in BALB/c mouse assessed as reduction in tumor volume at 10 mg/kg, ip qd for 15 days", "assay_type": "functional, organism-based", "conditions": "time 15.0 day"}, "4T1 [2]": {"test_system": "4T1", "assay": "Antitumor activity against mouse 4T1 cells allografted in BALB/c mouse assessed as reduction in tumor weight at 10 mg/kg, ip qd for 15 days", "assay_type": "functional, organism-based", "conditions": "time 15.0 day"}}, "note": "Activity calls are given as the source filed them. The rule behind the calls is not given here.", "data": [{"smiles": "CC(=O)O[C@H]1C(=O)[C@@]2(C)[C@H]([C@H](OC(=O)c3ccccc3)[C@]3(O)C[C@H](OC(=O)[C@H](O)[C@@H](NC(=O)c4ccccc4)c4ccccc4)C(C)=C1C3(C)C)[C@]1(OC(C)=O)CO[C@@H]1C[C@@H]2O", "values": [{"measurement": "Activity", "setting": "4T1 [1]", "value": "Active"}, {"measurement": "Activity", "setting": "4T1 [2]", "value": "Active"}]}]}
